The record followed here is patent US20230049231A1 (priority 2019, published 2023).

In one test the target is T1, Kv1.3 potassium channel (Homo sapiens, UniProt P22001).
T1 construct: expressed in transfected cells
The test can be described thus: Kv1.3 potassium channel blocker activity, automated whole-cell patch clamp (Patchliner). It is filed as cell-based. The gist of the method:
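IC50 came from Hill-equation fits of peak and AUC currents from the final pulse at each concentration, normalized to compound-free control. Compounds applied consecutively at 30 nM to 100 μM (up to 0.3% DMSO) to Kv1.3-expressing CHO-K1 cells, P/4 leak subtraction. Pulses were +40 mV, 100 ms, from −90 mV holding, at 0.1 Hz on Patchliner.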

The target in the next test is T2, hERG channel (Homo sapiens, UniProt Q12809).
T2 construct: expressed in transfected cells
T2 sequence (Q12809 whole entry): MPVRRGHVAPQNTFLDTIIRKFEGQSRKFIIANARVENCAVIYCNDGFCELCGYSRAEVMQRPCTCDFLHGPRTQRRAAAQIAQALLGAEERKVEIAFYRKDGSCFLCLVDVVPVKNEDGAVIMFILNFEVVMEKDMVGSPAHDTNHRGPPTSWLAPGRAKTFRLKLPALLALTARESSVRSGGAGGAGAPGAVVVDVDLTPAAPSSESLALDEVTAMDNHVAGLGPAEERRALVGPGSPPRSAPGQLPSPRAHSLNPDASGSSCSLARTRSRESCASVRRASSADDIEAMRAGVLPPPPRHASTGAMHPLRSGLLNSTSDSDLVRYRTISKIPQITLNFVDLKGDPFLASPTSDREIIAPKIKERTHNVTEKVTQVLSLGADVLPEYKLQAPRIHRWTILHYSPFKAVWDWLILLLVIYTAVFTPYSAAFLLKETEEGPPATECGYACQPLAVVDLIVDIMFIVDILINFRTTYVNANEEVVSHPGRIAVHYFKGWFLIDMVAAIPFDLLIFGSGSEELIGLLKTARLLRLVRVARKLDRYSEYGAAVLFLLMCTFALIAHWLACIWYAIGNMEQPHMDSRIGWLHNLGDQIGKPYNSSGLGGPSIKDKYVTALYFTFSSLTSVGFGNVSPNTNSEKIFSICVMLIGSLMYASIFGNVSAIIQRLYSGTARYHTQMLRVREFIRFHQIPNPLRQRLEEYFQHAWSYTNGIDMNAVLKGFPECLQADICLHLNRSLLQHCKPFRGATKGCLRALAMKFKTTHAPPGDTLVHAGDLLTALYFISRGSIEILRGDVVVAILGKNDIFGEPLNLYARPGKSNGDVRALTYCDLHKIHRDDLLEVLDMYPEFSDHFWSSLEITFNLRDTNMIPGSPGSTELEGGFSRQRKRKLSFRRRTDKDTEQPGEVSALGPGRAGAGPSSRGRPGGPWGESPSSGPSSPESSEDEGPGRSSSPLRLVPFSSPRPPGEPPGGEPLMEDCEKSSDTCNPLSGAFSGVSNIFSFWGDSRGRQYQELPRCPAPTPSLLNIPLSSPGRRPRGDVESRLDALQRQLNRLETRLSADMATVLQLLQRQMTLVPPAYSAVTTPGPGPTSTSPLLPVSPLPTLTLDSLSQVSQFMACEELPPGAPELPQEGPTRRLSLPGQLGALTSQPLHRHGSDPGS
The test can be described thus: hERG electrophysiology, automated whole-cell patch clamp (Patchliner). It is filed as cell-based. The gist of the method: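 Automated whole-cell patch clamp on CHO-K1 cells stably expressing hERG; 30 nM–100 μM applied cumulatively to the same cell, ≤0.3% DMSO. Pulses: −80 mV holding, +20 mV for 300 ms, −50 mV for 300 ms tail, 0.3 Hz, 70 per concentration. Last-pulse AUC and peak, normalized to control, were fitted to a Hill equation for IC50.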

[1] abbreviates: CHO-K1 cells stably expressing Kv1.3, 100 ms pulses from -90 mV to +40 mV, 0.1 Hz.
[2] abbreviates: CHO-K1 cells stably expressing hERG, +20 mV 300 ms, -50 mV 300 ms tail current, 0.3 Hz.
The mark [3] stands for this setting: Kv1.3 potassium channel, whole-cell patch clamp.
[4] abbreviates: hERG channel, whole-cell patch clamp.

SMILES strings stand for the structures.

T1 sequence (P22001 whole entry): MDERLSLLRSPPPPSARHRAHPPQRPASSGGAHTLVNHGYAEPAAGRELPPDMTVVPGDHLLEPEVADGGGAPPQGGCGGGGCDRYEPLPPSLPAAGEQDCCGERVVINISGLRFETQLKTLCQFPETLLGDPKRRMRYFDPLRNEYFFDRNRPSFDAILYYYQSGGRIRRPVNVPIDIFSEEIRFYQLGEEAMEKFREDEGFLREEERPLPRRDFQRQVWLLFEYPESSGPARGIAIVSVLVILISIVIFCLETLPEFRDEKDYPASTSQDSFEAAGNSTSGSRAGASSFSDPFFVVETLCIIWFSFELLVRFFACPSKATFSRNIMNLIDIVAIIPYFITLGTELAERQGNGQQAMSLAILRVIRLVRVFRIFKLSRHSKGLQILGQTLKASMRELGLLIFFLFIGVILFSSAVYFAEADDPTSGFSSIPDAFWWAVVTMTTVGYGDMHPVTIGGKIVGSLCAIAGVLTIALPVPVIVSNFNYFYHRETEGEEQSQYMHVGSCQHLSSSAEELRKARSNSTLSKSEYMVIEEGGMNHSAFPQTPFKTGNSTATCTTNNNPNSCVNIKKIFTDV

For `CNC(=O)N1CC(=O)N2C[C@@H](c3c(O)ccc(Cl)c3Cl)C[C@H]2C1` [Compound 37, (7R,8aS)-7-(2,3-dichloro-6-hydroxyphenyl)-N-methyl-4-oxo-hexahydropyrrolo[1,2-a]pyrazine-2-carboxamide], the results for the IC50 against Kv1.3 potassium channel (setting [1]) and against hERG channel (setting [2]) were under 1 µM and over 30 µM, respectively.
On to `COC[C@@H](O)C(=O)N1CC(=O)N2CC[C@@H](c3c(O)ccc(Cl)c3Cl)C[C@H]2C1` [Compound 4, (8R,9aS)-8-(2,3-dichloro-6-hydroxyphenyl)-2-[(2R)-2-hydroxy-3-methoxypropanoyl]-hexahydro-1H-pyrido[1,2-a]pyrazin-4-one], for which the IC50 against Kv1.3 potassium channel (setting [1]) is under 1 µM; on hERG channel (setting [2]) it was over 30 µM.
For the molecule `CC(C)(O)[C@@H]1OC(=O)N2C[C@@H](c3c(O)ccc(Cl)c3Cl)C[C@@H]12` (single isomer, unassigned) [Compound 256], the results for the IC50 against Kv1.3 potassium channel (setting [3]) and against hERG channel (setting [4]) were under 1 µM and over 30 µM, respectively.
The like results for `C[C@H](O)[C@H]1OC(=O)N2C[C@@H](c3c(O)ccc(Cl)c3Cl)C[C@@H]12` (single isomer, unassigned) [Compound 258] were, in that order, under 1 µM and over 30 µM.
The like results for `O=C1C[C@@H](N2CC[C@H](O)C2)C[C@@H]2C[C@H](c3c(O)ccc(Cl)c3Cl)CN12` (single isomer, unassigned) [Compound 194] were, in that order, under 1 µM and over 30 µM.
On the same counts, the results for `O=C1CN([C@H]2COC[C@@H]2O)C[C@@H]2C[C@H](c3c(O)ccc(Cl)c3Cl)CN12` (relative stereo) [Compound 154, (7R,8aS)-7-(2,3-dichloro-6-hydroxyphenyl)-2-[(3S,4R)-rel-4-hydroxyoxolan-3-yl]-hexahydropyrrolo [1,2-a]pyrazin-4-one] are under 1 µM and over 30 µM.
On to `CC[C@@H](O)CC(=O)N1CC(=O)N2C[C@@H](c3c(O)ccc(Cl)c3Cl)C[C@H]2C1` [Compound 69, (7R,8aS)-7-(2,3-dichloro-6-hydroxyphenyl)-2-[(3R)-3-hydroxypentanoyl]-hexahydropyrrolo [1,2-a]pyrazin-4-one], for which the IC50 against Kv1.3 potassium channel (setting [3]) was under 1 µM; against hERG channel (setting [4]), over 30 µM.
The like results for `Nc1ccnc(N2CC(=O)N3C[C@@H](c4c(O)ccc(Cl)c4Cl)C[C@H]3C2)c1` [Compound 171, (7R,8aS)-2-(4-aminopyridin-2-yl)-7-(2,3-dichloro-6-hydroxyphenyl)-hexahydropyrrolo[1,2-a]pyrazin-4-one] were, in that order, under 1 µM and under 10 µM.
The like results for `CCC[C@H](CO)C(=O)N1CC(=O)N2C[C@@H](c3c(O)ccc(Cl)c3Cl)C[C@H]2C1` [Compound 77, (7R,8aS)-7-(2,3-dichloro-6-hydroxyphenyl)-2-[(2R)-2-(hydroxymethyl)pentanoyl]-hexahydropyrrolo [1,2-a]pyrazin-4-one] were, in that order, under 1 µM and over 30 µM.
The like results for `CN(CCO)[C@H]1CC(=O)N2C[C@@H](c3c(O)ccc(Cl)c3Cl)C[C@H]2C1` (single isomer, unassigned) [Compound 205] were, in that order, under 1 µM and over 30 µM.
Regarding `C[C@@H](CO)N1CC(=O)N2C[C@@H](c3c(O)ccc(Cl)c3Cl)C[C@H]2C1` (single isomer, unassigned; isomer 2) [Compound 117], the IC50 was under 1 µM against Kv1.3 potassium channel (setting [3]) and over 30 µM against hERG channel (setting [4]).
For `O=C(C(CO)CO)N1CC(=O)N2C[C@@H](c3c(O)ccc(Cl)c3Cl)C[C@H]2C1` [Compound 65, (7R,8aS)-7-(2,3-dichloro-6-hydroxyphenyl)-2-[3-hydroxy-2-(hydroxymethyl)propanoyl]-hexa-hydropyrrolo[1,2-a]pyrazin-4-one], the results for the IC50 on Kv1.3 potassium channel (setting [3]) and at hERG channel (setting [4]) were under 1 µM and over 30 µM, respectively.
For the molecule `CC(CO)N1CC(=O)N2C[C@@H](c3c(O)ccc(Cl)c3Cl)C[C@H]2C1` (stereo partly drawn) [Compound 127, (7R,8aS)-7-(2,3-dichloro-6-hydroxyphenyl)-2-(1-hydroxypropan-2-yl)-hexahydropyrrolo [1,2-a]pyrazin-4-one], the IC50 on Kv1.3 potassium channel (setting [3]) was under 1 µM; at hERG channel (setting [4]), over 30 µM.
On the same counts, the results for `O=C1CN(c2ncn[nH]2)C[C@@H]2C[C@H](c3c(O)ccc(Cl)c3Cl)CN12` [Compound 175, (7R,8aS)-7-(2,3-dichloro-6-hydroxyphenyl)-2-(1H-1,2,4-triazol-5-yl)hexahydropyrrolo[1,2-a]pyrazin-4(1H)-one] are under 1 µM and over 30 µM.
The like results for `O=C1CN(c2cc(CO)ccn2)C[C@@H]2C[C@H](c3c(O)ccc(Cl)c3Cl)CN12` [Compound 173] were, in that order, under 1 µM and under 30 µM.
`O=C(CO)N1CC(N2CC(=O)N3C[C@@H](c4c(O)ccc(Cl)c4Cl)C[C@H]3C2)C1` [Compound 133, (7R,8aS)-7-(2,3-dichloro-6-hydroxyphenyl)-2-[1-(2-hydroxyacetyl)azetidin-3-yl]-hexahydropyrrolo [1,2-a]pyrazin-4-one]: the values for the IC50 against Kv1.3 potassium channel (setting [3]) and against hERG channel (setting [4]) were under 1 µM and over 30 µM, respectively.
The like results for `O=C1OC[C@@H](O)[C@@H]2C[C@H](c3c(O)ccc(Cl)c3Cl)CN12` (single isomer, unassigned) [Compound 266] were, in that order, under 1 µM and over 30 µM.
For `O=C1CN(C(=O)C2(CO)CC2)C[C@@H]2C[C@H](c3c(O)ccc(Cl)c3Cl)CN12` [Compound 67, (7R,8aS)-7-(2,3-dichloro-6-hydroxyphenyl)-2-[1-(hydroxymethyl)cyclopro-panecarbonyl]-hexahydropyrrolo[1,2-a]pyrazin-4-one], the IC50 against Kv1.3 potassium channel (setting [3]) was under 1 µM; on hERG channel (setting [4]) it was over 30 µM.
Consider `O=C1CN([C@H]2C[C@](O)(CO)C2)C[C@@H]2C[C@H](c3c(O)ccc(Cl)c3Cl)CN12` (single isomer, unassigned; isomer 1) [Compound 163], for which the IC50 at Kv1.3 potassium channel (setting [3]) is under 1 µM; against hERG channel (setting [4]), over 30 µM.
The like results for `N[C@H]1CC(=O)N2C[C@@H](c3c(O)ccc(Cl)c3Cl)C[C@H]2C1` (single isomer, unassigned) [Compound 189] were, in that order, under 1 µM and over 30 µM.
For `O=C([C@H](O)CO)N1CC(=O)N2CC[C@H](c3c(O)ccc(Cl)c3Cl)C[C@@H]2C1` (relative stereo) [Compound 10, (8S,9aR)-rel-8-(2,3-dichloro-6-hydroxyphenyl)-2-[(2R)-2,3-dihydroxypropanoyl]-hexahydro-1H-pyrido[1,2-a]pyrazin-4-one], the figures for the IC50 against Kv1.3 potassium channel (setting [1]) and at hERG channel (setting [2]) were under 1 µM and over 30 µM, respectively.
On the same counts, the results for `COC[C@H](O)C(=O)N1CC(=O)N2CC[C@@H](c3c(O)ccc(Cl)c3Cl)C[C@H]2C1` [Compound 44, (8R,9aS)-8-(2,3-dichloro-6-hydroxyphenyl)-2-[(2S)-2-hydroxy-3-methoxypropanoyl]-hexahydro-1H-pyrido[1,2-a]pyrazin-4-one] are under 1 µM and over 30 µM.
As for `O=C(NCCO)N1CC(=O)N2C[C@@H](c3c(O)ccc(Cl)c3Cl)C[C@H]2C1` [Compound 104, (7R,8aS)-7-(2,3-dichloro-6-hydroxyphenyl)-N-(2-hydroxyethyl)-4-oxo-hexahydropyrro[1,2-a]pyrazine-2-carboxamide], the results for the IC50 against Kv1.3 potassium channel (setting [3]) and against hERG channel (setting [4]) were under 1 µM and over 30 µM, respectively.
The like results for `O=C1CN(C[C@@H]2CCN2)C[C@@H]2C[C@H](c3c(O)ccc(Cl)c3Cl)CN12` (single isomer, unassigned; isomer 1) [Compound 139] were, in that order, under 1 µM and over 30 µM.
The like results for `CN(C)[C@H]1CC(=O)N2C[C@@H](c3c(O)ccc(Cl)c3Cl)C[C@H]2C1` (single isomer, unassigned) [Compound 201] were, in that order, under 1 µM and under 10 µM.
For the molecule `O=C(CO)N1CC(=O)N2CC(c3c(O)ccc(Cl)c3Cl)C[C@H]2C1` (stereo partly drawn) [Compound 24, (8aS)-7-(2,3-dichloro-6-hydroxyphenyl)-2-(2-hydroxyacetyl)-hexahydropyrrolo[1,2-a]pyrazin-4-one], the IC50 is under 1 µM at Kv1.3 potassium channel (setting [1]) and over 30 µM on hERG channel (setting [2]).
With `O=C1CN([C@@H]2CCNC2)C[C@@H]2C[C@H](c3c(O)ccc(Cl)c3Cl)CN12` [Compound 143, (7R,8aS)-7-(2,3-dichloro-6-hydroxyphenyl)-2-[(3R)-pyrrolidin-3-yl]-hexahydropyrrolo [1,2-a]pyrazin-4-one], the IC50 against Kv1.3 potassium channel (setting [3]) was under 1 µM; on hERG channel (setting [4]) it was over 30 µM.
On the same counts, the results for `O=C1O[C@H](CO)C[C@@H]2C[C@H](c3c(O)ccc(Cl)c3Cl)CN12` (single isomer, unassigned) [Compound 268] are under 1 µM and over 30 µM.
The like results for `O=C(CC(F)F)N1CC(=O)N2C[C@@H](c3c(O)ccc(Cl)c3Cl)C[C@H]2C1` [Compound 68, (7R,8aS)-7-(2,3-dichloro-6-hydroxyphenyl)-2-(3,3-difluoropropanoyl)-hexahydropyrrolo [1,2-a]pyrazin-4-one] were, in that order, under 1 µM and over 30 µM.
Regarding `O=C1CN(C[C@H]2CNCCO2)C[C@@H]2C[C@H](c3c(O)ccc(Cl)c3Cl)CN12` [Compound 147, (7R,8aS)-7-(2,3-dichloro-6-hydroxyphenyl)-2-[(2R)-morpholin-2-ylmethyl]-hexahydropyrrolo [1,2-a]pyrazin-4-one], the IC50 at Kv1.3 potassium channel (setting [3]) is under 1 µM; on hERG channel (setting [4]), over 30 µM.
On to `O=C1CN(CCO)C[C@@H]2C[C@H](c3c(O)ccc(Cl)c3Cl)CN12` [Compound 2, (7R,8aS)-7-(2,3-dichloro-6-hydroxyphenyl)-2-(2-hydroxyethyl)-hexahydropyrrolo[1,2-a]pyrazin-4-one], for which the IC50 at Kv1.3 potassium channel (setting [1]) was under 1 µM; against hERG channel (setting [2]), over 30 µM.

By IC50 is commonly meant the concentration that inhibits the measured activity by half. High values mean a need for much substance, low ones inhibition by little substance.
